Consider one compound from patent US5747461A, “Synergistic administration of cyclosporine and fructose diphosphate” (priority 1994, dated 1998).

Values joined by “and” are separate entries in the source; they are usually repeats but may differ in a detail not shown here. Equal values may be shown once.

For assay [1], the system named is ischemically stored livers. As to the kind of experiment: Oxygen consumption after hypothermic ischemic storage, liver. Further details: species or system rat. As to conditions: livers n=12; FDP 1 mg/ml in storage solution; storage 17.62±0.22 hours at 4° C.; measured at 36.4° C. How it is done: (§1) Sprague Dawley rats (150-180 gm/body weight) were anesthetized with Ketamine 35 mg/kg. The liver, kidney and heart were excised and placed in 50 ml of a standard cardioplegia solution sold under the trademark ISOLYTE (which contained Na^+ -41 mEq/L, K^+ -16 mEq/L, Ca^++ -5 mEq/L, Mg^++ 3 mEq/L, Cl^- -40 mEq/L, acetate 24 mEq/L with 5% Dextrose), precooled to 4° C. To half of the storage containers, 1 mg/ml of 10% FDP was added; to the rest of the containers, a similar amount of glucose was added. The containers were placed on ice in a refrigerator. After storage for 16 to 20 hours, the organs were weighed and placed in a metabolic chamber for determination of oxygen consumption,using a Clark polarographic electrode. The total volume of the chamber was 10 ml and the composition of the medium was 8 ml phosphate buffered saline (PBS Dulbecco, Mg^++ and Ca^++ free) and 2 cc of Dextrose at a temperature of 36°±0.2° C. The organ was placed in the chamber and 100% oxygen was bubbled for 45 sec. The partial pressure of the dissolved oxygen was usually 480-560 mm Hg. Then the chamber was sealed hermetically, and O2 consumption by the organ was recorded on a strip chart recorder at a speed of 1 cm/min. Initial and final PO2 levels of medium in the chamber were measured on a Radiometer Blood Gas Analyzer Model ABL-4.

Assay [2] relates to ischemically stored kidneys. Nature of the assay: Oxygen consumption after hypothermic ischemic storage, kidney. The arrangement: species or system rat. The settings on record: kidneys n=11; FDP 1 mg/ml in storage solution; 16 to 20 hours storage. On the procedure: as §1
Another assay relates to rat cardiac allograft. Nature of the assay: Intra-abdominal heart transplantation, series 2 (FDP alone and with cyclosporine). The format is in vivo. The settings on record: FDP pre and perioperative only (350 mg/kg IV, infusion 10 mg/kg IV for 90 min); n=5. How it is done:
In a second series of in vivo tests, FDP alone and in conjunction with cyclosporine was tested for its ability to suppress allograft rejection and prolong survival of the transplanted heart. […] Therefore, these tests evaluated FDP in conjunction with sub-optimal doses of CSA.
In these tests, the same procedure as described above was used to transplant hearts into the abdomens of recipient animals. Unlike the earlier tests, the animals also received prophylactic antibiotic treatment following surgery, as well as daily application of Bacitracin ointment of the site of the venous catheter.
The surgical technique used in these tests was exactly the same as described in Example 2, except the animals in this series of tests received prophylactic antibiotic treatment following surgery, and daily application of Bacitracin ointment of the site of the venous catheter.
The animals were divided into the following 6 groups: […]

The subject of assay [3] is cardiac allograft (Wistar-Furth donor heart in Lewis rat). Nature of the assay: Intra-abdominal heart transplantation, series 1 (graft survival, rejection grade). The format is in vivo. The source says: Since unwanted T cell stimulation is known to be a primary factor in causing allograft rejection, the results of the in vitro studies discussed above, showing that FDP can suppress T cell stimulation, led to a series of in vivo tests using heart transplantations in rats. These tests are described in detail in Example 2. Briefly, laboratory rats from a strain known as Lewis rats were used as recipients, while rats from a different strain known as Wistar-Furth were used as heart donors.
In the recipient animals, the native heart was not cut out and replaced by a new heart. […] This model provides a good test to determine whether the body will reject the foreign tissue, yet it avoids the extraordinary difficulties that would arise if the animal's native heart were cut out.
In the first round of tests, four treatment groups and one control group were established. The control group received no FDP. The four treatment groups were injected intravenously with 350 mg/kg of FDP 15 minutes prior to surgery, at a dosage of 350 mg/kg (i.e., 350 mg of FDP per kilogram of body weight). The treatment animals also received a 90 minute infusion of FDP during the operation, at a rate of 10 mg/kg/min. In addition to these "perioperative FDP" injections, the four treatment groups also received:
The animals were examined daily for viability. […] When the transplanted heart reached a level of non-viability, a lethal dose of pentobarbital was given, and the heart was removed, examined microscopically, and graded for rejection using the Stanford grading scale.
If a transplanted heart stopped beating prior to three days postoperatively, that animal was dropped from the study. Rats that died within five days of the operation for unknown causes were also dropped from the study. These deaths were believed to be secondary to sepsis, rather than caused by tissue rejection. Also, one animal in Group 1 died from a suture fracture; this animal was also dropped from the study.
Male Wistar-Furth rats (WF;RT-1^u) and male Lewis rats (Lew;RT-1^1)were obtained from Harlan Sprague-Dawley Animal Laboratories. Lewis rats weighing (200-224 gm) were used as recipients. WF rats weighing (200-224 gm) were used as donors.
The Lewis rats were anesthetized with a mixture of ketamine (100 mg/kg) and xylocaine (5 mg/kg) by intraperitoneal injection (IP) 1 to 2 days prior to transplantation. At this time, PE-90 tubing was placed in the internal jugular vein and brought out through the posterior aspect of the neck. The rats were placed in individual cages to prevent dislodging of the catheter. No limits were placed on water or rat chow.
The transplantation procedure was a modified version of Ono and Lindsey's microvascular technique for intra-abdominal transplantation. WF rats were anesthetized with pentobarbital (50 mg/kg). The chest and abdomen were shaved and prepped with betadine and then placed on a thermostatically controlled operating platform. […] After three minutes, the sternum and anterior chest were separated from the diaphragm and lateral ribs with heavy scissors. The chest cavity was opened and the IVC was ligated using a 5-0 silk ligature. The aorta was then dissected out and cross clamped at the level of the innominate artery. Three cc of cold cardioplegia solution (4° C.) was injected into the aortic root with a 25 gauge needle. The aorta was divided below the clamp. The pulmonary artery was dissected free and divided at its bifurcation. […] The heart was then removed and placed in iced saline with heparin (2 units/ml).
Lewis rats were then anesthetized in a similar fashion. After shaving and prepping the abdomen, a mid-line incision was made. The IVC and the infrarenal aorta were mobilized together. A curved bulldog was then used to cross clamp the vessels. The anastomosis was sewn between the […] and IVC using a 9-0 Ethicon microsurgical suture. The aorta-aorta anastomosis was then performed in a similar end-side fashion. […]

Setting [4] is: Group 1 perioperative FDP, Stanford grading scale.

For the compound `O=C(COP(=O)(O)O)[C@@H](O)[C@H](O)[C@H](O)COP(=O)(O)O` [FDP, fructose-1,6-diphosphate], in assay [1], the “oxygen consumption after ischemic storage” value is given as 76.7±4.4 O2 mmHg/min/gm. Besides, the “post-storage O2 consumption” value in assay [2] is 74.15±4.8 mmHg O2 /min/gm. For the same compound, in the assay on rat cardiac allograft, the “MST ± SEM (cardiac allograft survival)” value is 11.4 Days and 11.4 ± 0.74 Days. The “Mean Survival Time MST ± SE (graft)” value in assay [3] (Group 1: perioperative FDP (350 mg/kg IV + 10 mg/kg/min 90 min), no supplemental injections) was 13.5 days and 13.5 ± 1.4101 days; in assay [3] (Group 2: perioperative FDP + 350 mg/kg every 12 hours (bid), 350 mg/kg) it was 8.9 days and 8.9 ± 0.5154 days; in assay [3] (Group 3: perioperative FDP + 350 mg/kg every 8 hours (tid), 350 mg/kg), 10 days and 10.0 ± 0.5345 days; in assay [3] (Group 4: perioperative FDP + 350 mg/kg every 6 hours (qid), 350 mg/kg) it was 9.6 days and 9.4 ± 0.8004 days. The “Rejection Grades: number of hearts graded Moderate” value in assay [3] (setting [4]) came out at 1; in assay [3] (Group 2 FDP bid, N 8) it was 1; in assay [3] (Group 3 FDP tid, N 8), 1. In addition, the “Rejection Grades: number of hearts graded Severe/Advanced” value in assay [3] (setting [4]) is 8; in assay [3] (Group 2 FDP bid, N 8) it was 6; in assay [3] (Group 3 FDP tid, N 8), 7; in assay [3] (Group 4 FDP qid, N 8), 8. Moreover, the “Rejection Grades: number of hearts graded Mild” value worked out at 1 in assay [3] (Group 1 perioperative FDP, Stanford grading scale, N 11, 1 heart not evaluated) and 1 in assay [3] (Group 2 FDP bid, N 8). Further, the “rejection grades (span in the group)” value in assay [3] (Group I perioperative FDP, Stanford grading scale) was “mild to severe/advanced”; in assay [3] (Group II FDP every 12 hours) it was “mild to severe/advanced”; in assay [3] (Group III FDP every 8 hours), “moderate to severe/advanced”; in assay [3] (Group IV FDP every 6 hours), “severe/advanced”.
